Test results from patent US9492496B2, “Aminothiazoles and their uses” (Novartis AG, priority 2007, dated 2016).

What follows are compounds tested on prokaryotic transcription-translation (E. coli S30 extract) (assay: In vitro assay for inhibition of prokaryotic transcription-translation (Promega E. coli S30 Extract System, pBESTluc luciferase readout)). Settings: 2 uM compound, 2 h at 37° C., luciferase luminescence.
Format: biochemical
Procedure: In vitro assay for inhibition of prokaryotic transcription-translation [as described in the following references: 1. Zubay, G. (1973) In vitro synthesis of protein in microbial systems. Annu. Rev. Genet. 7, 267.87. 2. Zubay, G. (1980) The isolation and properties of CAP, the catabolite gene activator. Meth. Enzymol. 65, 856.77]. Antibiotic and compound dilutions: stock solutions of compound to be assayed at 2 μM are 80 μM in 40% DMSO. Stock solutions of compounds to be assayed at 10 μM are 400 μM in 40% DMSO.
Assay setup and protocol for Promega E. coli S30 Extract System
The assay is performed as follows: pipet 3.5 μl of 286 ng/μl template DNA (pBESTluc™) into assay wells. Negative control wells receive sdH2O only. Transfer 0.5 μl of 40× compound stock solution to assay wells. Positive control wells (no compound) receive 0.5 μl 40% DMSO sdH2O. Pipet 16 μl of master mix into assay wells. Incubate plate for two hours at 37° C. Rapidly chill the assay plate on ice for five minutes to stop the reaction. Add an equal volume (20 μl) of room temperature Steady-Glo® Luciferase assay reagent to all assay wells. Incubate 20 minutes and read light emitted with luminometer. Results are reported as % inhibition a 2 μM or 10 μM.
For `CNC(=O)C[C@@H]1NC(=O)c2csc(n2)-c2ccc(-c3nc(N(CCCCC(CCC(=O)O)C(=O)O)C(=O)O[C@H]4CC[C@H](C(=O)O)CC4)cs3)nc2-c2csc(n2)-c2csc(n2)[C@H]([C@@H](O)c2ccccc2)NC(=O)CNC(=O)c2nc(sc2COC)C(C(C)C)NC(=O)c2nc1sc2C` (some centres unmarked) [Compound 28], the “% inh. @ 2 uM” value was 2 uM = 77.0%.
For `CNC(=O)C[C@@H]1NC(=O)c2csc(n2)-c2ccc(-c3nc(N(CCCCC(=O)O)C(=O)O[C@H]4CC[C@H](C(=O)O)C[C@@H]4CCCCC(=O)O)cs3)nc2-c2csc(n2)-c2csc(n2)[C@H]([C@@H](O)c2ccccc2)NC(=O)CNC(=O)c2nc(sc2COC)C(C(C)C)NC(=O)c2nc1sc2C` (some centres unmarked) [Compound 29], the “% inh. @ 2 uM” value was 2 uM = 79.6%.
With `CNC(=O)C[C@@H]1NC(=O)c2csc(n2)-c2ccc(-c3nc(N(CCCCC(=O)O)C(=O)OCCC(CCCCC(=O)O)C(=O)O)cs3)nc2-c2csc(n2)-c2csc(n2)[C@H]([C@@H](O)c2ccccc2)NC(=O)CNC(=O)c2nc(sc2COC)C(C(C)C)NC(=O)c2nc1sc2C` (some centres unmarked) [Compound 30] the “% inh. @ 2 uM” value was 2 uM = 83.93%.
In the case of `CNC(=O)C[C@@H]1NC(=O)c2csc(n2)-c2ccc(-c3nc(N(CCCC(CCCCCCC(=O)O)C(=O)O)C(=O)O[C@H]4CC[C@H](C(=O)O)CC4)cs3)nc2-c2csc(n2)-c2csc(n2)[C@H]([C@@H](O)c2ccccc2)NC(=O)CNC(=O)c2nc(sc2COC)C(C(C)C)NC(=O)c2nc1sc2C` (some centres unmarked) [Compound 31], the “% inh. @ 2 uM” value is reported as 2 uM = 79.4%.
For `CNC(=O)C[C@@H]1NC(=O)c2csc(n2)-c2ccc(-c3nc(N(CCCCC(=O)O)C(=O)OCC(CCCCC(=O)O)CC(=O)O)cs3)nc2-c2csc(n2)-c2csc(n2)[C@H]([C@@H](O)c2ccccc2)NC(=O)CNC(=O)c2nc(sc2COC)C(C(C)C)NC(=O)c2nc1sc2C` (some centres unmarked) [Compound 32], the “% inh. @ 2 uM” value was 2 uM = 78.0%.
With `CNC(=O)C[C@@H]1NC(=O)c2csc(n2)-c2ccc(-c3nc(N(CCCCC(=O)O)C(=O)O[C@H]4CC[C@@](CCCCC(=O)O)(C(=O)O)CC4)cs3)nc2-c2csc(n2)-c2csc(n2)[C@H]([C@@H](O)c2ccccc2)NC(=O)CNC(=O)c2nc(sc2COC)C(C(C)C)NC(=O)c2nc1sc2C` (some centres unmarked) [Compound 33] the “% inh. @ 2 uM” value was 2 uM = 46.8%.
For `CNC(=O)C[C@@H]1NC(=O)c2csc(n2)-c2ccc(-c3nc(N(CCCCC(=O)O)C(=O)O[C@]4(CCCCC(=O)O)CC[C@@H](C(=O)O)CC4)cs3)nc2-c2csc(n2)-c2csc(n2)[C@H]([C@@H](O)c2ccccc2)NC(=O)CNC(=O)c2nc(sc2COC)C(C(C)C)NC(=O)c2nc1sc2C` (some centres unmarked) [Compound 34], the “% inh. @ 2 uM” value was 2 uM = 63.1%.
With `CNC(=O)C[C@@H]1NC(=O)c2csc(n2)-c2ccc(-c3nc(NC(=O)OCCC(CCCCC(=O)O)C(=O)O)cs3)nc2-c2csc(n2)-c2csc(n2)[C@H]([C@@H](O)c2ccccc2)NC(=O)CNC(=O)c2nc(sc2COC)C(C(C)C)NC(=O)c2nc1sc2C` (some centres unmarked) [Compound 35] the “% inh. @ 2 uM” value was 2 uM = 87.0%.
